Source: paper PMC4936272 (Bioorganic & medicinal chemistry letters, 2016)

Experiments:
[1] = system: FAAH; conditions: cited from earlier work
[2] = system: Male ICR mice; experiment: Mouse tail flick test; assay type: in vivo; conditions: for Analgesia in tail flick test: 50 mg/kg intraperitoneal (IP); for Analgesia in tail flick test, dose-response: lower doses than 50 mg/kg IP
[3] = molecular target: T1, human FAAH (Homo sapiens, UniProt O00519); experiment: Reversibility of FAAH inactivation by exhaustive dialysis; conditions: 144 hrs dialysis at 4°C after complete inactivation
T1 sequence (O00519 34-579): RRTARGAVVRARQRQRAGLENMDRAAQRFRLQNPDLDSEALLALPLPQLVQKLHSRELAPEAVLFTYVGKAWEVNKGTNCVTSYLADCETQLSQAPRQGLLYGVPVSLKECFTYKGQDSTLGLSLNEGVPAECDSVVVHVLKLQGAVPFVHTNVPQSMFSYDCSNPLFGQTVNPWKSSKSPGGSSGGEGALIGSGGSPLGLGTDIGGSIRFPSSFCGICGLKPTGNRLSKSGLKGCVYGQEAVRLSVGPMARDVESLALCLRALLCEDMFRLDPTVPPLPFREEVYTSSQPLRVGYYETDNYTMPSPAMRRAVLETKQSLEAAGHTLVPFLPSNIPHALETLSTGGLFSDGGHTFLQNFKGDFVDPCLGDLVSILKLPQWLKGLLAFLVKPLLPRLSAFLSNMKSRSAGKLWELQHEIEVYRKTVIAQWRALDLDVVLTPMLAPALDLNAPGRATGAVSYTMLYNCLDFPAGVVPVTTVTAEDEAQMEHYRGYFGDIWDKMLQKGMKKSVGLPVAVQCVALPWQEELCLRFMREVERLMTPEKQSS

Row | SMILES | Analgesia in tail flick test [2] | Analgesia in tail flick test, dose-response [2] | further results
2 | O=C(Oc1cccnc1)N1CCC(c2nc(C3=NOC(c4ccccc4)C3)cs2)CC1 (stereo not shown) [Compound 1o] | did not produce analgesia | – | –
3 | O=C(Nc1cccnc1)N1CCC(Cc2cccc(Oc3ccc(C(F)(F)F)cn3)c2)CC1 [PF-3845] | – | – | kinact reported for other chemotypes [1]: 0.0033 s⁻¹
4 | O=C(Nc1cccnn1)N1CCC(c2nc(C3=NOC(c4ccccc4)C3)cs2)CC1 (stereo not shown) [Compound 2f] | significant analgesic effects | failed to produce significant analgesia | –
5 | COc1ccc(OC(=O)N2CCC(c3nc(C4=NOC(c5ccccc5)C4)cs3)CC2)cc1 (stereo not shown) [Compound 1p] | did not produce analgesia | – | –
6 | O=C(Nc1ccccc1)N1CCN(c2nc(-c3ccccc3)ns2)CC1 [JNJ-1661010] | – | – | Recovery of FAAH activity after dialysis [3]: ~30%
7 | N#Cc1ccc(OC(=O)N2CCC(c3nc(C4=NOC(c5ccccc5)C4)cs3)CC2)cc1 (stereo not shown) [Compound 1b] | significant analgesic effects | clear dose-dependent effects down to 5 mg/kg | –
8 | O=C(Nc1cnccn1)N1CCC(c2nc(C3=NOC(c4ccccc4)C3)cs2)CC1 (stereo not shown) [Compound 2e] | significant analgesic effects | failed to produce significant analgesia | –
9 | O=C(Oc1ccccc1)N1CCC(c2nc(C3=NOC(c4ccccc4)C3)cs2)CC1 (stereo not shown) [Compound 1a, phenyl 4-[4-(4,5-dihydro-5-phenyl-3-isoxazolyl)-2-thiazolyl]-1-piperidinecarboxylate] | significant analgesic effects | failed to produce significant analgesia | –
